Read-outs that look alike come from different tables or passages of the source.
Target: CT-L activity of purified 20S proteasome (Homo sapiens, UniProt P20618+P28074)
Test: in vitro CT-L activity of purified 20S proteasome
Assay type: biochemical
Settings: for inhibition at 10 µM: Table 5, @ 10 μM, read-out: Screening Results (% Inhibition @ 10 μM) Chymotrypsin-like
[1] = Table 5, read-out: IC50 (μM) Chymotrypsin-like
[2] = Table 10, read-out: IC50 (μM) CT-L
[3] = Table 1, read-out: IC50 (μM) Chymotrypsin-like activity

Structure (SMILES)	IC50 [1] [µM]	IC50 (read-out: IC50, in vitro CT-L) [µM]	IC50 [3] [µM]	also measured
CC(C)N(Cc1nc(-c2ccccc2)no1)C(=O)COc1ccc(O)cc1 [drawing 156]	10.1 ± 4.52	–	–	inhibition at 10 µM: -5.85 ± 23.4%
Cc1ccc(CNC(=O)N(Cc2nc(-c3ccccc3)no2)C(C)C)cc1 [SO2-024, 1-Isopropyl-3-(4-methylbenzyl)-1-((3-phenyl-1,2,4-oxadiazol-5-yl)methyl)urea]	–	> 10	–	IC50 [2]: > 10 µM
CC(C)N(Cc1nc(-c2cccnc2)no1)C(=O)c1cc2ccccc2o1 [SO3-029]	–	–	–	IC50 [2]: 0.379 ± 0.063 µM
CCCc1ccc(OCC(=O)N(Cc2nc(-c3cccnc3)no2)C(C)C)cc1 [drawing 157]	0.032 ± 0.00015	–	–	inhibition at 10 µM: 92.3 ± 2.19%
CCCc1ccc(OCC(=O)N(Cc2nc(-c3ncccn3)no2)C(C)C)cc1 [11ao, N-Isopropyl-2-(4-propylphenoxy)-N-((3-(pyrimidin-2-yl)-1,2,4-oxadiazol-5-yl)methyl)acetamide]	–	1.26	1.27 ± 0.226	fold loss of CT-L activity (compared to 11ad or 11ae): 40 fold
Cc1ccc(NCC(=O)N(Cc2nc(-c3ccccc3)no2)C(C)C)cc1 [drawing 148]	5.67 ± 0.96	–	–	inhibition at 10 µM: 81.5 ± 2.77%
CC(C)N(Cc1nc(-c2ccccc2)no1)C(=O)CCc1ccc(C(F)(F)F)cc1 [compound 41]	–	–	–	CT-L inhibitory activity, in words: activity was diminished
Cc1ccc(CNC(=O)N(Cc2nc(-c3ccccc3)no2)C(C)C)cc1 [drawing 129]	–	–	–	inhibition at 10 µM: -8.75 ± 17.4%
CCCc1ccc(OCC(=O)N(Cc2nc(-c3ncccn3)no2)C(C)C)cc1 [drawing 174]	1.27 ± 0.226	–	–	–
Cc1ccc(OCC(=O)N(C)Cc2nc(-c3ccc(C)cc3)no2)cc1 [drawing 186]	–	–	–	IC50 (Table 9, read-out: IC50 (μM) Chymotrypsin-like): 29.9 µM
Cc1ccc(OCC(=O)N(Cc2nc(-c3ccccc3)no2)C(C)C)cn1 [drawing 154]	4 ± 0.89	–	–	inhibition at 10 µM: 70.6 ± 5.09%
CCCCCc1ccc(OCC(=O)N(Cc2nc(-c3cccnc3)no2)C(C)C)cc1 [11af]	–	–	0.121 ± 0.04	fold loss of CT-L activity (compared to 11ad or 11ae): 4 fold
CC(C)N(Cc1nc(-c2cccnc2)no1)C(=O)COc1ccc(C(C)(C)C)cc1 [drawing 170]	65.9 ± 33.7	–	–	–
CCCc1ccc(OCC(=O)N(Cc2nc(-c3cncnc3)no2)C(C)C)cc1 [11al]	–	0.032	–	–
CC(C)N(Cc1nc(-c2ccccc2)no1)C(=O)CCc1ccc(C(F)(F)F)cc1 [drawing 180]	–	–	–	IC50 (Table 8, 20S CT-L proteasome activity, read-out: IC50 (μM) CT-L): 15.7 µM
Cc1ccc(OCC(=O)N(Cc2nc(-c3ccc(C)cc3)no2)C(C)C)cc1 [PI-1833 (23)]	–	–	–	IC50 (Table 4, read-out: IC50 (μM) Chymotrypsin-like activity): 0.716 ± 0.27 µM
CC(C)N(Cc1nc(-c2ccccc2)no1)C(=O)COc1ccc(Cl)cc1 [11h, 2-(4-Chlorophenoxy)-N-isopropyl-N-((3-phenyl-1,2,4-oxadiazol-5-yl)methyl)acetamide]	–	0.3 to 0.5	0.51 ± 0.16	–

Second part, led by results:

IC50 [1] [µM]	IC50 (read-out: IC50, in vitro CT-L) [µM]	IC50 [3] [µM]	Structure (SMILES)	also measured
2.37 ± 0.4	–	–	Cc1ccc(OCC(=O)N(Cc2nc(-c3ccc(C)cc3)no2)CC(C)C)cc1 [drawing 111]	–
–	0.239 ± 0.09	–	Cc1ccc(OCC(=O)N(Cc2nc(-c3cccnc3)no2)C(C)C)cc1 [11x, N-isopropyl-N-((3-(pyridin-3-yl)-1,2,4-oxadiazol-5-yl)methyl)-2-(p-tolyloxy)acetamide]	fold improved CT-L activity (compared to the hit 1 (PI-1833)): 2.5 fold
–	3.74 ± 1.47	3.75 ± 1.47	Cc1ccc(OCC(=O)N(Cc2nc(-c3ccccn3)no2)C(C)C)cc1 [11w, N-Isopropyl-N-((3-(pyridin-2-yl)-1,2,4-oxadizaol-5-yl)methyl)-2-(p-tolyloxy)acetamide]	–
–	0.3 to 0.5	0.43 ± 0.12	CC(C)N(Cc1nc(-c2ccccc2)no1)C(=O)COc1ccc(C(F)(F)F)cc1 [11b, N-Isopropyl-N-((3-phenyl-1,2,4-oxadiazol-5-yl)methyl)-2-(4-(trifluoromethyl)phenoxy)acetamide]	–
–	0.3 to 0.5	0.31 ± 0.08	Cc1ccc(OCC(=O)N(Cc2nc(-c3ccccc3)no2)C(C)C)cc1 [11m, N-isopropyl-N-((3-phenyl-1,2,4-oxadiazol-5-yl)methyl)-2-(p-tolyloxy)acetamide]	–
–	~1	1.08 ± 0.33	Cc1ccc(-c2noc(CN(C(=O)COc3ccc(C(F)(F)F)cc3)C(C)C)n2)cc1 [11a, N-Isopropyl-N-((3-p-tolyl-1,2,4-oxadiazol-5-yl)methyl)-2-(4-(trifluoromethyl)phenoxy)acetamide]	–
–	8.4	8.47 ± 0.59	Cc1ccc(-c2noc(CN(C(=O)COc3ccccc3)C(C)C)n2)cc1 [11k, N-Isopropyl-2-phenoxy-N-((3-p-tolyl-1,2,4-oxadiazol-5-yl)methyl)acetamide]	fold loss of CT-L activity (compared to 1): 13 fold
1.12 ± 0.33	–	–	Cc1ccc(-c2noc(CN(C(=O)COc3ccc(Cl)cc3)C(C)C)n2)cc1 [drawing 123]	–
8.73 ± 3.05	–	–	CC(C)N(Cc1nc(-c2ccccc2)no1)C(=O)COc1ccc(F)cc1 [drawing 131]	–
–	15	15.1 ± 6.94	CC(C)N(Cc1nc(-c2ccc(C(F)(F)F)cc2)no1)C(=O)COc1ccccc1 [11l, N-Isopropyl-2-phenoxy-N-((3-(4-(trifluoromethyl)phenyl)-1,2,4-oxadiazol-5-yl)methyl)acetamide]	fold loss of CT-L activity (compared to 1): 25 fold

— US9878999B2, “Proteasome chymotrypsin-like inhibition using PI-1833 analogs” (H. Lee Moffitt Cancer Center and Research Institute, Inc., priority 2011, dated 2018)
